# Measurements from PubChem BioAssay (NCI).
# Values joined by “and” are separate entries in the source; they are usually repeats but may differ in a detail not shown here. Equal entries are not always repeated.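 Exposure lasted 48 hours, with cells grown in 96-well plates and compounds tested at five concentrations. GI50 = concentration required for 50% inhibition of growth. Definition used: TGI = concentration required for complete inhibition of growth.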
# How the values were obtained:
# Test in all cases: NCI anticancer screen, dose series, 48 h
# [1] = test system: COLO 205 colon
# [2] = test system: SF-268 CNS
# [3] = test system: HL-60(TB) leukemia
# [4] = test system: 786-0 renal
# [5] = test system: CCRF-CEM leukemia
# [6] = test system: SNB-75 CNS
# [7] = test system: HCT-116 colon
# [8] = test system: RXF 393 renal
# [9] = test system: K-562 leukemia
# [10] = test system: OVCAR-8 ovarian
# [11] = test system: HOP-92 NSCLC
# [12] = test system: SW-620 colon
# [13] = test system: MDA-MB-231 breast
# [14] = test system: MOLT-4 leukemia
# [15] = test system: SK-MEL-28 melanoma
# [16] = test system: SF-539 CNS
# [17] = test system: UACC-257 melanoma
# [18] = test system: OVCAR-3 ovarian
# [19] = test system: NCI/ADR-RES ovarian
# [20] = test system: KM12 colon
# [21] = test system: OVCAR-5 ovarian
# [22] = test system: ACHN renal
# [23] = test system: HCT-15 colon
# [24] = test system: U251 CNS
# [25] = test system: LOX IMVI melanoma
# [26] = test system: NCI-H522 lung
# [27] = test system: MDA-MB-435
# [28] = test system: SK-MEL-2 melanoma
# [29] = test system: IGROV1 ovarian
# [30] = test system: SF-295 CNS
# [31] = test system: UACC-62 melanoma
# [32] = test system: HOP-62 NSCLC
# [33] = test system: A549 NSCLC
# [34] = test system: MCF7 breast
# [35] = test system: NCI-H226 lung
# [36] = test system: SK-MEL-5 melanoma
# [37] = test system: DU-145 prostate
# [38] = test system: NCI-H23 lung
# [39] = test system: A498 renal
# [40] = test system: SN12C renal
# [41] = test system: SNB-19 CNS
# [42] = test system: EKVX NSCLC
# [43] = test system: HCC-2998 colon
# [44] = test system: HT29 colon
# [45] = test system: RPMI-8226 leukemia
# [46] = test system: T-47D breast
# [47] = test system: CAKI-1 renal
# [48] = test system: HS 578T breast
# [49] = test system: UO-31 renal
# [50] = test system: SK-OV-3 ovarian
# [51] = test system: OVCAR-4 ovarian
# [52] = test system: TK-10 renal
# [53] = test system: M14 melanoma
# [54] = test system: MALME-3M melanoma
# [55] = test system: BT-549 breast
# [56] = test system: PC-3 prostate
# [57] = test system: NCI-H460 lung
# [58] = test system: SR leukemia
structure (smiles),measurement,setting,value
FC(F)(F)c1ccc(CNc2ccc(Cc3c[nH]c4ncc(Cl)cc34)cn2)cn1,GI50,[1],5.58 µM and > 10 µM
same,TGI,[1],20.6 µM and > 10 µM
same,GI50,[2],6.25 µM and > 10 µM
same,TGI,[2],29.3 µM and > 10 µM
same,GI50,[3],16.5 µM and > 10 µM
same,TGI,[3],49.4 µM and > 10 µM
same,GI50,[4],5.33 µM and 4.19 µM
same,TGI,[4],19.5 µM and > 10 µM
same,GI50,[5],13.9 µM and 6.85 µM
same,TGI,[5],70.6 µM and > 10 µM
same,GI50,[6],2.2 µM and 2.48 µM
same,TGI,[6],13.6 µM and > 10 µM
same,GI50,[7],12.3 µM and > 10 µM
same,TGI,[7],27.4 µM and > 10 µM
same,GI50,[8],9.75 µM and > 10 µM
same,TGI,[8],25.8 µM and > 10 µM
same,GI50,[9],7.27 µM and 8.71 µM
same,TGI,[9],44.8 µM and > 10 µM
same,GI50,[10],5.34 µM and > 10 µM
same,TGI,[10],28.6 µM and > 10 µM
same,GI50,[11],9.46 µM and 3.77 µM
same,TGI,[11],28.6 µM and > 10 µM
same,GI50,[12],10.6 µM and > 10 µM
same,TGI,[12],26.8 µM and > 10 µM
same,GI50,[13],8.7 µM and > 10 µM
same,TGI,[13],26.1 µM and > 10 µM
same,GI50,[14],4.02 µM and 3.28 µM
same,TGI,[14],21.9 µM and > 10 µM
same,GI50,[15],13.2 µM and > 10 µM
same,TGI,[15],30.2 µM and > 10 µM
same,GI50,[16],10.6 µM and 8.14 µM
same,TGI,[16],24.4 µM and > 10 µM
same,GI50,[17],11.5 µM and > 10 µM
same,TGI,[17],25.8 µM and > 10 µM
same,GI50,[18],14.4 µM and > 10 µM
same,TGI,[18],33.7 µM and > 10 µM
same,GI50,[19],7.68 µM and > 10 µM
same,TGI,[19],38.7 µM and > 10 µM
same,GI50,[20],3.53 µM and 3.56 µM
same,TGI,[20],15.3 µM and > 10 µM
same,GI50,[21],23 µM and > 10 µM
same,TGI,[21],50.8 µM and > 10 µM
same,GI50,[22],13.2 µM and > 10 µM
same,TGI,[22],36 µM and > 10 µM
same,GI50,[23],10.1 µM and > 10 µM
same,TGI,[23],27.1 µM and > 10 µM
same,GI50,[24],10.1 µM and > 10 µM
same,TGI,[24],24.8 µM and > 10 µM
same,GI50,[25],11.5 µM and > 10 µM
same,TGI,[25],26.3 µM and > 10 µM
same,GI50,[26],10.5 µM and > 10 µM
same,TGI,[26],29.3 µM and > 10 µM
same,GI50,[27],5.92 µM and > 10 µM
same,TGI,[27],22.7 µM and > 10 µM
same,GI50,[28],17.6 µM and > 10 µM
same,TGI,[28],37.2 µM and > 10 µM
same,GI50,[29],12.2 µM and > 10 µM
same,TGI,[29],40.7 µM and > 10 µM
same,GI50,[30],4.83 µM and 5.24 µM
same,TGI,[30],24.4 µM and > 10 µM
same,GI50,[31],8.56 µM
same,TGI,[31],25 µM
same,GI50,[32],11.4 µM and > 10 µM
same,TGI,[32],29.4 µM and > 10 µM
same,GI50,[33],10.5 µM and > 10 µM
same,TGI,[33],32.2 µM and > 10 µM
same,GI50,[34],6.34 µM and > 10 µM
same,TGI,[34],33.6 µM and > 10 µM
same,GI50,[35],4.91 µM and 3.94 µM
same,TGI,[35],27.2 µM and > 10 µM
same,GI50,[36],5.49 µM and 4.3 µM
same,TGI,[36],19.2 µM and > 10 µM
same,GI50,[37],12.4 µM and > 10 µM
same,TGI,[37],33.6 µM and > 10 µM
same,GI50,[38],10.3 µM and > 10 µM
same,TGI,[38],32 µM and > 10 µM
same,GI50,[39],2.08 µM and 4.41 µM
same,TGI,[39],14 µM and > 10 µM
same,GI50,[40],13.9 µM and > 10 µM
same,TGI,[40],30.6 µM and > 10 µM
same,GI50,[41],10.8 µM and > 10 µM
same,TGI,[41],37.2 µM and > 10 µM
same,GI50,[42],7.89 µM and > 10 µM
same,TGI,[42],43.5 µM and > 10 µM
same,GI50,[43],12.5 µM and > 10 µM
same,TGI,[43],30.3 µM and > 10 µM
same,GI50,[44],4.89 µM and > 10 µM
same,TGI,[44],17.3 µM and > 10 µM
same,GI50,[45],5.76 µM and 5.99 µM
same,TGI,[45],44.2 µM and > 10 µM
same,GI50,[46],4.36 µM and 4.5 µM
same,TGI,[46],28.3 µM and > 10 µM
same,GI50,[47],10.3 µM and > 10 µM
same,TGI,[47],30.8 µM and > 10 µM
same,GI50,[48],3.33 µM and 2.55 µM
same,TGI,[48],32.2 µM and > 10 µM
same,GI50,[49],3.78 µM and 6.32 µM
same,TGI,[49],17.7 µM and > 10 µM
same,GI50,[50],8.8 µM and > 10 µM
same,TGI,[50],32.5 µM and > 10 µM
same,GI50,[51],3.6 µM and 6.33 µM
same,TGI,[51],19.2 µM and > 10 µM
same,GI50,[52],13.5 µM and > 10 µM
same,TGI,[52],36.4 µM and > 10 µM
same,GI50,[53],4.62 µM and > 10 µM
same,TGI,[53],19.2 µM and > 10 µM
same,GI50,[54],12.3 µM and > 10 µM
same,TGI,[54],30.7 µM and > 10 µM
same,GI50,[55],14.5 µM and > 10 µM
same,TGI,[55],34.4 µM and > 10 µM
same,GI50,[56],9.65 µM and > 10 µM
same,TGI,[56],34 µM and > 10 µM
same,GI50,[57],12.9 µM and > 10 µM
same,TGI,[57],30 µM and > 10 µM
same,GI50,[58],6.13 µM and 6.63 µM
same,TGI,[58],42.2 µM and > 10 µM
